Measurements reported in patent US20230115176A1 (Ra Pharmaceuticals, Inc., priority 2019, published 2023).
Converted amounts (≈) assume the structure as drawn.

System: not listed separately
Assay: Kinetic solubility in PBS pH 7.4, HPLC-UV (Example 21, Table 27)
Type: physicochemical
Conditions: phosphate buffered saline, aqueous buffer, kinetic from dmso stock, 0.5 M PBS, shaken minimum 24 h at approximately 25° C., HPLC-UV 270 nm
Experimental: Compounds were analyzed for kinetic solubility values using a standard kinetic solubility assay format. First, test compounds were dissolved in DMSO (Aldrich Chemical Co., Milwaukee, Wis., USA) at a concentration of 0.010 mol/L and used to prepare standard calibrators in DMSO solution. 500.0 μM, 250.0 μM, 125.0 μM, 62.5 μM, 31.2 μM, and 15.6 μM standards were prepared in a Greiner UV-Star clear V-bottom 96-well plate (Greiner-Bio One, Germany) for generating a standard curve. Using Alfa Aesar's Sodium phosphate, 0.2 M buffer solution, pH 7.4 (Alfa Aesar, Haverhill, Mass., USA), aqueous phosphate buffered saline (PBS) was prepared by diluting with Milli-Q water for a final concentration of 0.05 M. The pH of the solution was adjusted to 7.4±0.1 using 0.1 M hydrochloric acid (Fisher Scientific Waltham, Mass., USA) or 0.1 M aqueous sodium hydroxide (Fisher Scientific Waltham, Mass., USA).
10 μL of 0.010 mol/L DMSO test compound stock solutions were pipetted to separate 1.5 mL centrifuge tubes in triplicate. To these tubes, 190 μl of 0.05 M PBS was added. Each tube was gently vortexed for 5 sec. The tubes were shaken for a minimum of 24 h at approximately 25° C. After shaking, the solutions were transferred to 0.5 mL centrifuge filter tubes (MilliporeSigma, Burlington, Mass., USA) and centrifuged at 10,000 rpm for 5 min. After centrifugation, supernatants were collected and used for compound concentration analysis.
Compound concentrations in each solution were determined using high pressure liquid chromatography (HPLC) with ultraviolet (UV) detection and comparison with external standards. For HPLC, a Waters Acquity CSH Phenyl-Hexyl column (2.1 mm×50 mm, 1.7 μm) was used together with a generic gradient method on a Waters H-class system equipped with a diode array detector: Solvent A=0.1% formic acid in water, Solvent B=0.1% formic acid in acetonitrile (MilliporeSigma, Burlington, Mass., USA), flow=0.65 mL/min, (t=0 min: 95% A-5% B, t=4.75 min: 0% A-100% B, t=4.85 min: 0% A-100% B, t=4.86 min: 95% A-5% B, t=5 min: 95% A-5% B). UV quantifications were performed at 270 nm. Solution concentrations were calculated using Microsoft Excel.

solubility kinetic [µM] | Structure (SMILES)
286 (≈ 150 µg/mL) | COc1cc(CC(=O)N(C)C)ccc1CN1CCCN(c2ccc(OC)c(OCCC[C@H]3C[C@H]3C)c2)C1=O (racemic) [CU0226]
75 (≈ 40 µg/mL) | COc1ccc(N2CCCN(Cc3ccnc4c3ccn4CC(=O)N(C)C)C2=O)cc1OCCC[C@H]1C[C@@H]1C (racemic) [CU0752]
348 (≈ 208 µg/mL) | CCCCCOc1cc(N2CCCN(Cc3ccc(CC(=O)N4CCO[C@@H](CN(C)C)C4)cc3OC)C2=O)ccc1OC (stereo in doubt) [CU0186]
417 (≈ 249 µg/mL) | CCCCCOc1cc(N2CCCN(Cc3ccc(CC(=O)N4CCO[C@H](CN(C)C)C4)cc3OC)C2=O)ccc1OC (stereo in doubt) [CU0187]
366 (≈ 231 µg/mL) | COc1cc(CC(=O)NC2CCN(C(C)C)CC2)ccc1CN1CCCN(c2ccc(OC)c(OCCCC(C)(F)F)c2)C1=O [CU0141]
58 (≈ 25.7 µg/mL) | COc1ccc(F)cc1CN1CCCN(c2ccc(OC)c(OCCC3CCC3)c2)C1=O [CU0154]
62 (≈ 34 µg/mL) | CCCCCOc1cc(N2CCCN(Cc3ccc(CNC(=O)c4ccnnc4)cc3OC)C2=O)ccc1OC [CU0503]
60 (≈ 32.9 µg/mL) | CCCCCOc1cc(N2CCCN(Cc3ccc(CNC(=O)c4cccnn4)cc3OC)C2=O)ccc1OC [CU0505]
< 10 | COc1ccc(N2CCCN(Cc3ccnc4c3c(Cl)cn4CC(=O)N3CCNC(=O)C3)C2=O)cc1OCCCC1CC1 [CU0522]
50 (≈ 27.5 µg/mL) | CCCCCOc1cc(N2CCCN(Cc3ccc(CNC(=O)c4cnnn4C)cc3OC)C2=O)ccc1OC [CU0544]
< 10 | COc1cc(CNC(C)=O)ccc1CN1CCCN(c2ccc(OC)c(OCCCC3CCC3)c2)C1=O [CU0546]
12 (≈ 7.42 µg/mL) | CCCCCOc1cc(N2CCCN(Cc3ccnc4c3c(Cl)cn4CCN3CCS(=O)(=O)CC3)C2=O)ccc1OC [CU0551]
12 (≈ 6.67 µg/mL) | CCCCCOc1cc(N2CCCN(Cc3ccnc4c3c(Cl)cn4CC(=O)NC(C)C)C2=O)ccc1OC [CU0553]
< 10 | CCCCCOc1cc(N2CCCN(Cc3ccnc4c3c(Cl)cn4Cc3nnn(C)n3)C2=O)ccc1OC [CU0556]
< 10 | CCCCCOc1cc(N2CCCN(Cc3ccnc4c3c(Cl)cn4CCOCCNC(C)=O)C2=O)ccc1OC [CU0559]
19 (≈ 12.6 µg/mL) | CCCCCOc1cc(N2CCCN(Cc3ccnc4c3c(Cl)cn4CCOC(=O)N3CCS(=O)(=O)CC3)C2=O)ccc1OC [CU0563]
249 (≈ 138 µg/mL) | CCCCCOc1cc(N2CCCN(Cc3ccnc4c3c(Cl)cn4CCN3CCCC3)C2=O)ccc1OC [CU0564]
< 10 | CCCCCOc1cc(N2CCCN(Cc3ccnc4c3c(Cl)cn4Cc3nnnn3C)C2=O)ccc1OC [CU0570]
13 (≈ 7.85 µg/mL) | CCCCCOc1cc(N2CCCN(Cc3ccnc4c3c(Cl)cn4CCN3CCCS3(=O)=O)C2=O)ccc1OC [CU0577]
< 10 | COc1ccc(N2CCCN(Cc3ccnc4c3c(Cl)cn4CC(=O)N(C)C)C2=O)cc1OCCCC(C)(C)C [CU0595]
170 (≈ 84.6 µg/mL) | CCCCCOc1cc(N2CCCN(Cc3ccc(C4CNC(=O)O4)cc3OC)C2=O)ccc1OC (stereo not shown) [CU0611]
101 (≈ 51 µg/mL) | CCCCCOc1cc(N2CCCN(Cc3ccc(Cc4cnccn4)cc3OC)C2=O)ccc1OC [CU0614]
179 (≈ 91.6 µg/mL) | CCCCCOc1cc(N2CCCN(Cc3ccc(C4CN(C)C(=O)O4)cc3OC)C2=O)ccc1OC (stereo not shown) [CU0618]
275 (≈ 168 µg/mL) | CCCCCOc1cc(N2CCCN(Cc3ccnc4c3c(Cl)cn4C(C)C(=O)N3CN(C(C)C)C3)C2=O)ccc1OC (stereo not shown) [CU0620]
364 (≈ 171 µg/mL) | CCCCCOc1cc(N2CC[C@H](C)N(Cc3cccc4[nH]cc(Cl)c34)C2=O)ccc1OC [CU0623]
> 500 | COc1cc(CCNC2CCN(C)C2=O)ccc1CN1CCCN(c2ccc(OC)c(OCCCC3CC3)c2)C1=O (stereo not shown) [CU0643]
139 (≈ 72.2 µg/mL) | CCCCCOc1cc(N2CCCN(Cc3ccnc4c3ccn4[C@@H]3CCN(C)C3=O)C2=O)ccc1OC [CU0667]
440 (≈ 222 µg/mL) | CCCCCOc1cc(N2CCCN(Cc3ccc(Cc4ccccn4)cc3OC)C2=O)ccc1OC [CU0672]
11 (≈ 5.96 µg/mL) | CCCCCOc1cc(N2CCCN(Cc3cncc4c3c(Cl)cn4CC(=O)N(C)C)C2=O)ccc1OC [CU0673]
71 (≈ 38.9 µg/mL) | CCCCCOc1cc(N2CCCN(Cc3ccc(CNC(=O)c4cnccn4)cc3OC)C2=O)ccc1OC [CU0677]

Target: T1, Human C5 (Homo sapiens, UniProt P01031)
T1 construct: purchased Complement Technology
T1 sequence (P01031 19-1676): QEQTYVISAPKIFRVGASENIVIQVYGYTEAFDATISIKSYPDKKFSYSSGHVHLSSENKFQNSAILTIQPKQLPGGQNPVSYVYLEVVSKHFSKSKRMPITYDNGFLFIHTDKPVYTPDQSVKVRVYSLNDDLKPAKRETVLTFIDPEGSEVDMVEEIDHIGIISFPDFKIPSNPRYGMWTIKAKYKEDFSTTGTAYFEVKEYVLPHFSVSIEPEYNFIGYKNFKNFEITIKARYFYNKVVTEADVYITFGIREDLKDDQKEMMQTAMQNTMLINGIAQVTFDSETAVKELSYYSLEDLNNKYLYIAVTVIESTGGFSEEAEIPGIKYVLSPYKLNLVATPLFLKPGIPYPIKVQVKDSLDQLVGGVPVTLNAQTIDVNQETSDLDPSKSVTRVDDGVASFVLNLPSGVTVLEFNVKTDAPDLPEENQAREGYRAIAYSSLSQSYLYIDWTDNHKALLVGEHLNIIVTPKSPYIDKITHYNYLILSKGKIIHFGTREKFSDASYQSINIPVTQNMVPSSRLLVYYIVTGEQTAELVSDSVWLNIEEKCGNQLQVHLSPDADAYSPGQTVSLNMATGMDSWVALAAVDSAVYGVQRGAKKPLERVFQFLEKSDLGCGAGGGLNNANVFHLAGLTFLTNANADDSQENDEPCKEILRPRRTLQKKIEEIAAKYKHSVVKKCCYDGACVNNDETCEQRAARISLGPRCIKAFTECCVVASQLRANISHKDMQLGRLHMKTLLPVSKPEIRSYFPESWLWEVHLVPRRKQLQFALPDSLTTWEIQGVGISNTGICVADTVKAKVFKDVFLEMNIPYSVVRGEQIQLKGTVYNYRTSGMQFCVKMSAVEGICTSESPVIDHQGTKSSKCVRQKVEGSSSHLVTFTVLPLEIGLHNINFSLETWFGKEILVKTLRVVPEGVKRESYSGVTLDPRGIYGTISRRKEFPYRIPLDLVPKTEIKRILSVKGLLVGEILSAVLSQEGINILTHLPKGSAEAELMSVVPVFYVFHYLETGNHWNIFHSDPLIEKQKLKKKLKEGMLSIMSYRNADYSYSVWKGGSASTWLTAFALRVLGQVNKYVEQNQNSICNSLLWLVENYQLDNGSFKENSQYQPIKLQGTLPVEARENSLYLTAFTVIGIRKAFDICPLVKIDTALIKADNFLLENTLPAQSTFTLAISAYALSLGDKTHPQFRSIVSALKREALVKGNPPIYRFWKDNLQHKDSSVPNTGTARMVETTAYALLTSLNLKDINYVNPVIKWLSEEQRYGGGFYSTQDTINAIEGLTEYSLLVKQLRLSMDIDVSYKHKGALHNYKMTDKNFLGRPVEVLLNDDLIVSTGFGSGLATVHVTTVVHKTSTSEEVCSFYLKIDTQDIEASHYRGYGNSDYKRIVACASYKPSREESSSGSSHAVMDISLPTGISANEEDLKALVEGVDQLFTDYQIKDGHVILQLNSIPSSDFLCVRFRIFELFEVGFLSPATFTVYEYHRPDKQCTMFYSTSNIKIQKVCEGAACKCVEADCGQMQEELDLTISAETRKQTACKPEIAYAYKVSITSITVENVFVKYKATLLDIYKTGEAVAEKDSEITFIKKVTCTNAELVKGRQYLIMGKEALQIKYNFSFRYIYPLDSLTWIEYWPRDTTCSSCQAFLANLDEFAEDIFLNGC
Assay: Red blood cell (RBC) hemolysis assay, luminescent (Example 13, Table 22); further: 1.5% C5-depleted human serum
Type: cell-based
Conditions: sheep EA cells, […] C5-depleted human serum, 0.5 nM human C5, 1 hour 37° C., luminescence
Description: Compound CU0136 is a racemic mixture of Compound CU0186 and CU0187. Numbers in parenthesis following compound numbers indicate alternate enantiomers (as distinguished by retention time during chromatographical separation).

Structure (SMILES) | IC50 [nM]
COc1cc(CC(=O)N(C)C)ccc1CN1CCCN(c2ccc(OC)c(OCCC[C@H]3C[C@H]3C)c2)C1=O (racemic) [CU0226] | 15.7
CCCCCOc1cc(N2CCCN(Cc3ccc(CC(=O)N4CCO[C@@H](CN(C)C)C4)cc3OC)C2=O)ccc1OC (stereo in doubt) [CU0186] | 18.8
CCCCCOc1cc(N2CCCN(Cc3ccc(CC(=O)N4CCO[C@H](CN(C)C)C4)cc3OC)C2=O)ccc1OC (stereo in doubt) [CU0187] | 14.8
COc1cc(CC(=O)NC2CCN(C(C)C)CC2)ccc1CN1CCCN(c2ccc(OC)c(OCCCC(C)(F)F)c2)C1=O [CU0141] | 13.1
COc1ccc(F)cc1CN1CCCN(c2ccc(OC)c(OCCC3CCC3)c2)C1=O [CU0154] | 22.6
CCCCCOc1cc(N2CCCN(Cc3ccc(Cc4ncco4)cc3OC)C2=O)ccc1OC [CU0208] | 59.1
CCCCCOc1cc(N2CCCN(Cc3ccc(Cc4nnn[nH]4)cc3OC)C2=O)ccc1OC [CU0209] | 55.2
CCCCCOc1cc(N2CCCN(Cc3ccc(CC#N)cc3OC)C2=O)ccc1OC [CU0210] | 32.9
COc1ccc(F)cc1CN1CCCN(c2ccc(OC)c(OCCc3ccccc3C)c2)C1=O [CU0215] | 34.1
COc1ccc(F)cc1CN1CCCN(c2ccc(OC)c(OCCC3CCCCC3)c2)C1=O [CU0216] | 27
COc1ccc(F)cc1CN1CCCN(c2ccc(OC)c(OCCCC(C)C)c2)C1=O [CU0217] | 18.3
COc1ccc(F)cc1CN1CCCN(c2ccc(OC)c(OCCc3ccc(C)cc3)c2)C1=O [CU0219] | 221
COc1ccc(F)cc1CN1CCCN(c2ccc(OC)c(OCCc3cccc(C(F)(F)F)c3)c2)C1=O [CU0220] | 254
COc1ccc(F)cc1CN1CCCN(c2ccc(OC)c(OCc3cccc(OC(F)(F)F)c3)c2)C1=O [CU0221] | 741
COc1ccc(F)cc1CN1CCCN(c2ccc(OC)c(OCCCC3CCCCC3)c2)C1=O [CU0222] | 69.9
COc1ccc(F)cc1CN1CCCN(c2ccc(OC)c(OCc3cccc(C(F)(F)F)c3)c2)C1=O [CU0223] | 400
C/C=C\CCCOc1cc(N2CCCN(Cc3cc(F)ccc3OC)C2=O)ccc1OC [CU0225] | 29.1
COc1cccc(COc2cc(N3CCCN(Cc4cc(F)ccc4OC)C3=O)ccc2OC)c1 [CU0227] | 362
CCCCCOc1cc(N2CCCN(Cc3ccnc4c3ccn4CC(=O)N3CCCOCC3)C2=O)ccc1OC [CU0228] | 21.8

Structure (SMILES) | IC50 [nM]
CCCCCOc1cc(N2CCCN(Cc3ccc(C)c4c3ccn4CC(=O)N(C)C)C2=O)ccc1OC [CU0229] | 88.9
CCCCCOc1cc(N2CCCN(Cc3ccc(F)c4c3ccn4CC(=O)N(C)C)C2=O)ccc1OC [CU0230] | 60.5
CCCCCOc1cc(N2CCCN([C@@H](C)c3cccc4c3ccn4CC(=O)N(C)C)C2=O)ccc1OC [CU0233] | 4260
CCCCCOc1cc(N2CCCN(Cc3cc(C)cc4c3ccn4CC(=O)N(C)C)C2=O)ccc1OC [CU0236] | 203
CCCCCOc1cc(N2CCCN(Cc3cc(F)cc4c3ccn4CC(=O)N(C)C)C2=O)ccc1OC [CU0237] | 43.9
CCCCCOc1cc(N2CCCN(Cc3cccc4c3cc(C)n4CC(=O)N(C)C)C2=O)ccc1OC [CU0238] | 61
COc1ccc(N2CCCN(Cc3cccc4[nH]ccc34)C2=O)cc1OCCCC(C)(F)F [CU0240] | 42.2
CCCCCOc1cc(N2CCCN(Cc3cccc4c3ccn4C3CCN(C4CC4)C3=O)C2=O)ccc1OC (stereo not shown) [CU0241] | 10.7
CCCCCOc1cc(N2CCCN(Cc3cccc4c3ccn4CC(=O)N(C)C3CCN(CC)C3)C2=O)ccc1OC (stereo not shown) [CU0242] | 8.2
CCCCCOc1cc(N2CCCN(Cc3ccnc4c3ccn4CC3CCCO3)C2=O)ccc1OC (stereo not shown) [CU0248] | 101
CCCCCOc1cc(N2CCCN(Cc3ccnc4c3ccn4CCC3CCOCC3)C2=O)ccc1OC [CU0249] | 386
CCCCCOc1cc(N2CCCN(Cc3ccnc4c3ccn4CCN3CCOC3=O)C2=O)ccc1OC [CU0250] | 217
CCCCCOc1cc(N2CCCN(Cc3ccnc4c3ccn4CC3=NCCN3C)C2=O)ccc1OC [CU0251] | 34
COc1ccc(N2CCCN(Cc3ccnc4c3ccn4CC(=O)N(C)C)C2=O)cc1OCc1ccccc1 [CU0252] | 825
COc1ccc(N2CCCN(Cc3ccnc4c3ccn4CC(=O)N(C)C)C2=O)cc1OCC[C@@H]1C[C@@H]2CC[C@H]1C2 [CU0253] | 41.9
CCCCCOc1cc(N2CCCN(Cc3ccnc4c3ccn4CCN3CCCC3)C2=O)ccc1OC [CU0254] | 18.7
COc1ccc(N2CCCN(Cc3ccnc4c3ccn4CC(=O)N(C)C)C2=O)cc1OCCC1CCCC1 [CU0259] | 75
COc1ccc(N2CCCN(Cc3ccnc4c3ccn4CC(=O)N(C)C)C2=O)cc1OCCCC(C)(F)F [CU0262] | 34.6
